Results: patent publication US20250360130A1, “METHODS OF TREATING INDOLENT SYSTEMIC MASTOCYTOSIS” (Telios Pharma Inc., priority 2024, published 2025)

Tests used:
humans = settings: cited from earlier work
[1] = test system: subjects with AdvSM and ISM; settings: cited from earlier work
ISM patients = settings: cited from earlier work
mast cells = test: Phosphorylation and degranulation of antigen-stimulated mast cells grown with chronic SCF (FIG. 21); type: cell-based; settings: 1 μM, antigen 15 minutes
Procedure: Histamine release, CD63 expression, CD203c expression, pBTK (Y223) levels, pP38 (T180/Y182) levels, pPLCg1 (S1248) levels, pERK (T202/Y204) levels, and pS6 (S235/236) levels are shown. Mast cells were grown with continuous (chronic) exposure to SCF and then stimulated with antigen (Ag) for 15 minutes, leading to phosphorylation of multiple kinases, including pBTK, […], pP38, pERK, and pS6 ribosome. This stimulation increases degranulation markers, including CD63, CD203c, and histamine release.

basophils = test: Comparison of BTK inhibitors by BAT (CD63, CD203c); type: cell-based, human; settings: concentration of 1 μM, 2 hours, blood from a healthy donor
Procedure: The BAT assay using the Flow Cast Basophil Activation Kit (Buhlmann Diagnostics; Catalog #B-CCR-STCON) was then conducted following manufacturer instructions by (1) stimulating the blood with anti-FcεR stimulation control in stimulation buffer with IL-3 and staining cells for CCR3 and CD63 for 15 minutes at 37° C., (2) lysing red blood cells and fixing cells with Lysing Reagent at room temperature for 10 minutes, (3) washing cells with Wash Buffer, and (4) acquiring data on a flow cytometer. Activated basophils were defined as CCR3+, low side scatter and CD63+. Percent of activated basophils was calculated as number of activated basophils over the total number of basophils. A four-parameter logistic regression was applied to determine the EC50 and EC90.
Blood samples were gently rocked at room temperature for 2 hours. […] Activated basophils were also defined as CCR3+, low side scatter and CD203c+.

SMILES: C=CC(=O)N1CCC[C@@H](n2nc(-c3ccc(Oc4ccccc4)cc3)c3c(N)ncnc32)C1 [ibrutinib, Ibrutinib (1-[(3R)-3-[4-amino-3-(4-phenoxyphenyl)pyrazolo[3,4-d]pyrimidin-1-yl]piperidin-1-yl]prop-2-en-1-one)]
- adverse events associated with administration (humans): heightened risk of atrial fibrillation, hypertension, major bleeding events, and cytopenias

SMILES: Cc1nc(Nc2ncc(C(=O)Nc3c(C)cccc3Cl)s2)cc(N2CCN(CCO)CC2)n1 [dasatinib]
- subjects who discontinued treatment due to toxicity ([1]; 15 subjects with AdvSM and 18 subjects with ISM, overall): 34%
- pleural effusion, grade 3 adverse event, patients overall ([1]; overall study population): 10%

SMILES: Cn1cc(-c2cc3c(N4CCN(c5ncc([C@@](C)(N)c6ccc(F)cc6)cn5)CC4)ncnn3c2)cn1 [avapritinib]
- reduction of total symptom score compared to the placebo (ISM patients; 25 mg QD, week 24, ISM patients): 5.7 points
- ISM patients with dose interruptions due to adverse reactions (ISM patients; 25 mg QD): 5%
- treated subjects who failed to achieve a mean symptom score reduction of 30% (ISM patients; ISM patients, first 6 months of treatment): approximately half
- subjects who achieved a 50% symptom score reduction (ISM patients; ISM patients, within the first 6 months of treatment): about a third
- activation (phosphorylation and degranulation) of mast cells (mast cells): only partially inhibits activation

SMILES: CC#CC(=O)N1CCC[C@H]1c1nc(-c2ccc(C(=O)Nc3ccccn3)cc2)c2c(N)nccn12 [acalabrutinib, Acalabrutinib ((S)-4-(8-amino-3-(1-(but-2-ynoyl)pyrrolidin-2-yl)imidazo[1,5-a]pyrazin-1-yl)-N-(pyridin-2-yl)benzamide), reference compound]
- basophil activation (CD63+, CD203c+) (basophils): no effect on basophil activation
